Measured values as given in patent US10849916B2 (priority 2014, dated 2020).

Assay: Water (moisture) content by Karl Fischer method
Format: physicochemical
Conditions: for Water content tested by KF method: isolated impurity fraction from preparative HPLC
Procedure: 1. Water content: Water content was estimated by karl fischer (KF) method wherein suitable quantity of methanol was taken in the flask and titrated with karl fischer reagent to neutralize the methanol. Then weighed quantity of the sample is added to the flask and titrated to the end point.

Compound | Water content tested by KF method | Water content in the vials (after drying under vacuum in lyophilizer) | Water content of the input cyclophosphamide monohydrate (input drug substance, before drying)
CCOCCN(CCCl)P1(=O)NCCCO1 (stereo not shown) [0.75 RRT, 2-((2-chloroethyl)(2-ethoxyethyl)amino)-1,3,2-oxazaphosphinane 2-oxide] | 2.71 % by weight | – | –
O=P1(N(CCCl)CCCl)NCCCO1 (stereo not shown) [Cyclophosphamide, 2-[bis(2-chloroethyl)amino]tetrahydro-2H-1,3,2-oxazaphosphorine 2-oxide monohydrate] | – | approximately 1% | *Water content of the input cyclophosphamide monohydrate is 6.25% w/w.
CCOP(=O)(O)OCCCN1CCNCC1 [0.21 RRT, ethyl (3-(piperazin-1-yl)propyl) hydrogen phosphate] | 2.69 % by weight | – | –
